From PMC8834192 (2022) come the findings set out here.

In assay [1] the test system is Z0 (DNA, aptamer) CTACCAGCTTTGAGGCTCGATCCAGCTTATTCAATTATACCAGCTTATTCAATTATACCAGC
Nature of the assay: circular dichroism. The conditions noted are these: Z0Z1 partial duplex; Z1 (S3) displaced; buffer not stated.

For assay [2] the test system is unchanged. Nature of the assay: UV-Vis absorbance at 260 nm of released strand. The conditions noted are these: room temperature; partially complementary strand Z1 displaced from bead-bound Z0Z1.

The structures appear in SMILES notation.

For the compound `C[C@H]1CCCC(=O)CCC/C=C/c2cc(O)cc(O)c2C(=O)O1`, the binding entry in assay [1] and in assay [2] was “yes” in each case.
